Reference: the kinase profiling compilation of Christmann-Franck et al. (2016)
Each block holds one compound with its values, some of them ahead of it.

What was measured:
Assay in all cases: KINOMEscan competition binding
Conditions in all cases: compound 10.0 µM
[1] = biological target: GRK4 (human) (UniProt P32298)
[2] = biological target: MARK2 (human) (UniProt Q7KZI7)
[3] = biological target: MST4 (human) (UniProt Q9P289)
[4] = biological target: MYO3A (human) (UniProt Q8NEV4)
[5] = biological target: PIM1 (human) (UniProt P11309)
[6] = biological target: BMPR1A (human) (UniProt P36894)
[7] = biological target: MAP3K2 (human) (UniProt Q9Y2U5)
MAP3K2 (human), sequence (Q9Y2U5 whole entry, looked up): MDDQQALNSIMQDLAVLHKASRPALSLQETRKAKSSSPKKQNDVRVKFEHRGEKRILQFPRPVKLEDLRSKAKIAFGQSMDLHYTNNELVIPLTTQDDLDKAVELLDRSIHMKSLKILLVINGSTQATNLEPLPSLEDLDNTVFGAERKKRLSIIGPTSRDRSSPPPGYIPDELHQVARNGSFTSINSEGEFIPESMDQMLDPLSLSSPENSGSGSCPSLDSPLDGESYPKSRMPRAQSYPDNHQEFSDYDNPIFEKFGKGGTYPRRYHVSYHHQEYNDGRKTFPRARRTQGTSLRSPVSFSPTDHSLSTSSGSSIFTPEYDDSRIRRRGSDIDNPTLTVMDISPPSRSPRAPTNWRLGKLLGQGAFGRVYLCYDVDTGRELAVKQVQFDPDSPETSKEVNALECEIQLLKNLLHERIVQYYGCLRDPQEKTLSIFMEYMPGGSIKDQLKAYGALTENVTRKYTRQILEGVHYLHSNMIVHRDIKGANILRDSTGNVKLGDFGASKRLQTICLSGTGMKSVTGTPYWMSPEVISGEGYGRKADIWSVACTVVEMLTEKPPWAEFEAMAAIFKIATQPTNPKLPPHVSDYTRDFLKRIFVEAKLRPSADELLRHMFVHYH

[8] = biological target: CAMKK2 (human) (UniProt Q96RR4)
[9] = biological target: RPS6KA5 KD1 (human) (UniProt O75582)
RPS6KA5 KD1 (human), sequence (O75582 whole entry, looked up): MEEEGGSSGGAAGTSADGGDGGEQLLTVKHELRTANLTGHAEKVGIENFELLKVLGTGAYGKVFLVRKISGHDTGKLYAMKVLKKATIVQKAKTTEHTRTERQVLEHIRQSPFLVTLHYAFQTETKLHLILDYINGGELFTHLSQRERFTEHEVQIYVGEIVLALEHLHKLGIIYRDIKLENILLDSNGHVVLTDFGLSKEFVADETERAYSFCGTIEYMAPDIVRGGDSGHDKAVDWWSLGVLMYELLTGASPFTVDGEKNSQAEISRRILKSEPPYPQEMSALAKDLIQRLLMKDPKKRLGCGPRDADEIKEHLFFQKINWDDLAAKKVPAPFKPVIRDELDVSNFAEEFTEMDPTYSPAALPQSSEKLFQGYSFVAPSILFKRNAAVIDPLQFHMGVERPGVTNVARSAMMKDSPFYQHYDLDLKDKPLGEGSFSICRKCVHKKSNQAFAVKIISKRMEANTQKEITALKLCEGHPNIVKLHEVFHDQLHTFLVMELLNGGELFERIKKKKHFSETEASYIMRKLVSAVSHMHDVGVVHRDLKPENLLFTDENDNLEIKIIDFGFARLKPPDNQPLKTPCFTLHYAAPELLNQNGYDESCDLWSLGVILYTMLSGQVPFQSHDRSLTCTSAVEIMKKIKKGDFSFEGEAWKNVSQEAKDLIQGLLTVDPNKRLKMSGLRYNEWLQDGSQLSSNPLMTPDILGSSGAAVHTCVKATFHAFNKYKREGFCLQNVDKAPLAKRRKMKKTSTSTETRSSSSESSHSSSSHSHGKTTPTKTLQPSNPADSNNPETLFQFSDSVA

[10] = biological target: EPHA6 (human) (UniProt Q9UF33)
[11] = biological target: TNK2 (human) (UniProt Q07912)
[12] = biological target: PTK2 (human) (UniProt Q05397)
[13] = biological target: EPHA3 (human) (UniProt P29320)
[14] = system: KIT (human), P10721 [V559D/T670I]
[15] = biological target: STK4 (human) (UniProt Q13043)
[16] = biological target: ULK1 (human) (UniProt O75385)
[17] = biological target: FLT4 (human) (UniProt P35916)
[18] = biological target: PRKAA1 (human) (UniProt Q13131)
[19] = biological target: MAP2K6 (human) (UniProt P52564)
[20] = biological target: STK10 (human) (UniProt O94804)
[21] = biological target: NLK (human) (UniProt Q9UBE8)
[22] = biological target: STK36 (human) (UniProt Q9NRP7)
STK36 (human), sequence (Q9NRP7 whole entry, looked up): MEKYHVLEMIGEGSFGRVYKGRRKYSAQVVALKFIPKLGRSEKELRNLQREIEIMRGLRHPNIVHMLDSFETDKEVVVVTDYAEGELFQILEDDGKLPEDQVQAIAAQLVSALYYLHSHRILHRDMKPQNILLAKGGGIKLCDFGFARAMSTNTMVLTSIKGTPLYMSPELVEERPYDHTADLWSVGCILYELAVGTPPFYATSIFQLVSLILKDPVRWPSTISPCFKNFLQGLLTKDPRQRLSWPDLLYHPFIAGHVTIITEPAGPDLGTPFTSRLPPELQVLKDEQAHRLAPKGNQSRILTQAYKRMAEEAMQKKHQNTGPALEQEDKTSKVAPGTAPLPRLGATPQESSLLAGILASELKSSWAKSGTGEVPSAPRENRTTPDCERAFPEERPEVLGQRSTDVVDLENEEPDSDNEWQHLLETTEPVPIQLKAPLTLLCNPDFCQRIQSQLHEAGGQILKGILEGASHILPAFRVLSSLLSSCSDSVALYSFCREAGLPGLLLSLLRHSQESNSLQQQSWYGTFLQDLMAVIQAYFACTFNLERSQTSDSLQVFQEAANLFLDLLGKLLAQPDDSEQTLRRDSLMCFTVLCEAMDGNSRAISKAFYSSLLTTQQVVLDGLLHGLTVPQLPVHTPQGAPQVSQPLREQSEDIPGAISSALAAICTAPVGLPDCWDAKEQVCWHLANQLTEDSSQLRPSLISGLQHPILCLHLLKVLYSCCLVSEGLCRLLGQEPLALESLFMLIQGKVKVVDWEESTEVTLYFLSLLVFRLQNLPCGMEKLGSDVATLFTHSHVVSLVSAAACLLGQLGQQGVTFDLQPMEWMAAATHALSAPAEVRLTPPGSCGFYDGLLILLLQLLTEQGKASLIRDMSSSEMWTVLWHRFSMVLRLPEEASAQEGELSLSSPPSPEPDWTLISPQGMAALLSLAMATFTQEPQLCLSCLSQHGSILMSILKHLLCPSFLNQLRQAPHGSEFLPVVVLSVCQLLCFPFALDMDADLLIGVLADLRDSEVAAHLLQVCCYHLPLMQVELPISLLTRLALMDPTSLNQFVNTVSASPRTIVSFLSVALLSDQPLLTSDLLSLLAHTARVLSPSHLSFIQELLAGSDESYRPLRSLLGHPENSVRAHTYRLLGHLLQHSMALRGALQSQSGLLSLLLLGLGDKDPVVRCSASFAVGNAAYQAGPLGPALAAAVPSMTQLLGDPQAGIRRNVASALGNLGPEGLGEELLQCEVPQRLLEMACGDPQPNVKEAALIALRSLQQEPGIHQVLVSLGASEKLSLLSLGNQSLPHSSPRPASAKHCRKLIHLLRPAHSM

[23] = biological target: ERBB2 (human) (UniProt P04626)
[24] = biological target: ACVRL1 (human) (UniProt P37023)
[25] = system: ABL1 (human), P00519 [T315I]
[26] = biological target: MAPK3 (human) (UniProt P27361)
[27] = biological target: STK32B (human) (UniProt Q9NY57)
[28] = biological target: STK11 (human) (UniProt Q15831)
[29] = biological target: TEK (human) (UniProt Q02763)
[30] = biological target: MAPK13 (human) (UniProt O15264)
[31] = biological target: STK25 (human) (UniProt O00506)
[32] = biological target: AKT2 (human) (UniProt P31751)
AKT2 (human), sequence (P31751 whole entry, looked up): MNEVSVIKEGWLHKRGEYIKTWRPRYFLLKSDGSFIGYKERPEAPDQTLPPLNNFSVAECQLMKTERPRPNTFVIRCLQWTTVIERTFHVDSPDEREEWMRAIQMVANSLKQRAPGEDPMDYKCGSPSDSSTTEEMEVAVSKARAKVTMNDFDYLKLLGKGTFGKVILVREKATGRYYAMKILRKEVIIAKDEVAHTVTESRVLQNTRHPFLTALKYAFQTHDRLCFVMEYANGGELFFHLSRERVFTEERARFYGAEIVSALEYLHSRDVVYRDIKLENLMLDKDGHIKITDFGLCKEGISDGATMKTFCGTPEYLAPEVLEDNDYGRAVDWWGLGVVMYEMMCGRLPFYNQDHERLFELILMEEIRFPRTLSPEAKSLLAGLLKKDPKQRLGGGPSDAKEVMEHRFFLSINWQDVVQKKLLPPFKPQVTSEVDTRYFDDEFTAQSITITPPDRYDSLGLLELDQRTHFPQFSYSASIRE

[33] = biological target: TGFBR2 (human) (UniProt P37173)
[34] = biological target: CSNK1E (human) (UniProt P49674)
[35] = biological target: MARK4 (human) (UniProt Q96L34)
[36] = system: RET (human), P07949 [V804M]
[37] = biological target: GSK3B (human) (UniProt P49841)
[38] = biological target: BMP2K (human) (UniProt Q9NSY1)
BMP2K (human), sequence (Q9NSY1 whole entry, looked up): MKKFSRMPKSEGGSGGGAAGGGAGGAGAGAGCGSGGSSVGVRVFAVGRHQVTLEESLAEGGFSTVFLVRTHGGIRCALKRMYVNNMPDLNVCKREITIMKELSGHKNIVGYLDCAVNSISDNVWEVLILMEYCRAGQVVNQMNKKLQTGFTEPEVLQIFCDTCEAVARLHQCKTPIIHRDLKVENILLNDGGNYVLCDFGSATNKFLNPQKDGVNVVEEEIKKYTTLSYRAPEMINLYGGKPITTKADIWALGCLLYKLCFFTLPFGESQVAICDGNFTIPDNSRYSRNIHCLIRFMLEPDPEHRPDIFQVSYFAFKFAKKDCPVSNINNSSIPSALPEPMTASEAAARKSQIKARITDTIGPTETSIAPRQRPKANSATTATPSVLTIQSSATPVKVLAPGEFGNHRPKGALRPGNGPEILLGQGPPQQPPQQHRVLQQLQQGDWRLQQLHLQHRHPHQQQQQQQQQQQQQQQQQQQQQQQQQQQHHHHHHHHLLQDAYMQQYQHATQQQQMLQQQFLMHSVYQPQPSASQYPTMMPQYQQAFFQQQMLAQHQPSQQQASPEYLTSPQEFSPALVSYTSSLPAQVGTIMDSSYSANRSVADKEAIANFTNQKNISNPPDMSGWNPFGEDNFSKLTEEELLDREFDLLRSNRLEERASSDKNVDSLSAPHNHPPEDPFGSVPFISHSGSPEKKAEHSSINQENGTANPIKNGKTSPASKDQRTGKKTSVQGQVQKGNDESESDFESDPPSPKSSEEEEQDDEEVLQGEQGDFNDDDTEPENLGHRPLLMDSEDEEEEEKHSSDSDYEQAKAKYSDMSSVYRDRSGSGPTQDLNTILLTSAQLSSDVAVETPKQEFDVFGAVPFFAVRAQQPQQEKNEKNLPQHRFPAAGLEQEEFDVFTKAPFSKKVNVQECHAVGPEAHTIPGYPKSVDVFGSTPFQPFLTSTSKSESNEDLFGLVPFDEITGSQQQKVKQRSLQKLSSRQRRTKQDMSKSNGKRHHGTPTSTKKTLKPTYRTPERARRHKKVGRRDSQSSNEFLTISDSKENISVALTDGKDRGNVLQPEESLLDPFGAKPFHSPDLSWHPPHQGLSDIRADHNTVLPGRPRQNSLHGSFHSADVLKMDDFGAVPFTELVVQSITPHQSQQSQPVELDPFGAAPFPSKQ

[39] = biological target: CLK3 (human) (UniProt P49761)
[40] = biological target: LATS1 (human) (UniProt O95835)
[41] = biological target: EPHB1 (human) (UniProt P54762)
[42] = system: FLT3 (human), P36888 [N841I]

MST4 (human), sequence (Q9P289 whole entry, looked up): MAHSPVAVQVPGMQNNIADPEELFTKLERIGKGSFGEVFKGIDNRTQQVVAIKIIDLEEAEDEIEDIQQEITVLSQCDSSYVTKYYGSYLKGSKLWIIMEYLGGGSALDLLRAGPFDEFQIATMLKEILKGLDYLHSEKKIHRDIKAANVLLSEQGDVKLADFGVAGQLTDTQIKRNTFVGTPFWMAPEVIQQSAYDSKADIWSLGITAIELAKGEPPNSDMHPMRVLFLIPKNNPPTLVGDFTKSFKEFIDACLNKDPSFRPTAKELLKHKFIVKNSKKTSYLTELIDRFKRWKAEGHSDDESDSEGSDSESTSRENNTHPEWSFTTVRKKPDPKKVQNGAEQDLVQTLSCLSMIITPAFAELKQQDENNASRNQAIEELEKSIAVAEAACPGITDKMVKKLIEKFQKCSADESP

- kinase still bound, per cent of control [1]: 100%
- kinase still bound, per cent of control [2]: 100%
- kinase still bound, per cent of control [3]: 82%
- kinase still bound, per cent of control [4]: 100%
- kinase still bound, per cent of control [5]: 94%
- kinase still bound, per cent of control [6]: 100%
- kinase still bound, per cent of control [7]: 93%
- kinase still bound, per cent of control [8]: 100%
- kinase still bound, per cent of control [9]: 98%
- kinase still bound, per cent of control [10]: 100%
- kinase still bound, per cent of control [11]: 100%
- kinase still bound, per cent of control [12]: 96%
- kinase still bound, per cent of control [13]: 100%
- kinase still bound, per cent of control [14]: 91%
- kinase still bound, per cent of control [15]: 100%
- kinase still bound, per cent of control [16]: 94%
- kinase still bound, per cent of control [17]: 100%
- kinase still bound, per cent of control [18]: 82%
- kinase still bound, per cent of control [19]: 73%
- kinase still bound, per cent of control [20]: 100%
- kinase still bound, per cent of control [21]: 86%
- kinase still bound, per cent of control [22]: 42%
- kinase still bound, per cent of control [23]: 100%
- kinase still bound, per cent of control [24]: 100%
- kinase still bound, per cent of control [25]: 100%
- kinase still bound, per cent of control [26]: 100%
- kinase still bound, per cent of control [27]: 100%
- kinase still bound, per cent of control [28]: 100%
- kinase still bound, per cent of control [29]: 100%
- kinase still bound, per cent of control [30]: 100%
- kinase still bound, per cent of control [31]: 90%
- kinase still bound, per cent of control [32]: 100%
- kinase still bound, per cent of control [33]: 100%
- kinase still bound, per cent of control [34]: 76%
- kinase still bound, per cent of control [35]: 100%
- kinase still bound, per cent of control [36]: 90%
- kinase still bound, per cent of control [37]: 1%
- kinase still bound, per cent of control [38]: 99%
- kinase still bound, per cent of control [39]: 97%
- kinase still bound, per cent of control [40]: 100%
- kinase still bound, per cent of control [41]: 96%
- kinase still bound, per cent of control [42]: 75%
SMILES: Cc1cnc(-c2cnc(NCCNc3ccc(C#N)cn3)nc2-c2ccc(Cl)cc2Cl)[nH]1

- kinase still bound, per cent of control [1]: 100%
- kinase still bound, per cent of control [2]: 78%
- kinase still bound, per cent of control [3]: 100%
- kinase still bound, per cent of control [4]: 95%
- kinase still bound, per cent of control [5]: 22%
- kinase still bound, per cent of control [6]: 100%
- kinase still bound, per cent of control [7]: 100%
- kinase still bound, per cent of control [8]: 72%
- kinase still bound, per cent of control [9]: 98%
- kinase still bound, per cent of control [10]: 100%
- kinase still bound, per cent of control [11]: 100%
- kinase still bound, per cent of control [12]: 84%
- kinase still bound, per cent of control [13]: 76%
- kinase still bound, per cent of control [14]: 92%
- kinase still bound, per cent of control [15]: 62%
- kinase still bound, per cent of control [16]: 96%
- kinase still bound, per cent of control [17]: 97%
- kinase still bound, per cent of control [18]: 61%
- kinase still bound, per cent of control [19]: 57%
- kinase still bound, per cent of control [20]: 97%
- kinase still bound, per cent of control [21]: 92%
- kinase still bound, per cent of control [22]: 100%
- kinase still bound, per cent of control [23]: 100%
- kinase still bound, per cent of control [24]: 100%
- kinase still bound, per cent of control [25]: 80%
- kinase still bound, per cent of control [26]: 99%
- kinase still bound, per cent of control [27]: 100%
- kinase still bound, per cent of control [28]: 60%
- kinase still bound, per cent of control [29]: 73%
- kinase still bound, per cent of control [30]: 100%
- kinase still bound, per cent of control [31]: 76%
- kinase still bound, per cent of control [32]: 100%
- kinase still bound, per cent of control [33]: 100%
- kinase still bound, per cent of control [34]: 49%
- kinase still bound, per cent of control [35]: 100%
- kinase still bound, per cent of control [36]: 83%
- kinase still bound, per cent of control [37]: 2%
- kinase still bound, per cent of control [38]: 58%
- kinase still bound, per cent of control [39]: 1.4%
- kinase still bound, per cent of control [40]: 100%
- kinase still bound, per cent of control [41]: 91%
- kinase still bound, per cent of control [42]: 47%
SMILES: Cn1cc(C2=C(c3ccc(Cl)cc3Cl)C(=O)NC2=O)c2ccccc21

- kinase still bound, per cent of control [1]: 100%
- kinase still bound, per cent of control [2]: 100%
- kinase still bound, per cent of control [3]: 99%
- kinase still bound, per cent of control [4]: 100%
- kinase still bound, per cent of control [5]: 75%
- kinase still bound, per cent of control [6]: 78%
- kinase still bound, per cent of control [7]: 96%
- kinase still bound, per cent of control [8]: 100%
- kinase still bound, per cent of control [9]: 100%
- kinase still bound, per cent of control [10]: 100%
- kinase still bound, per cent of control [11]: 96%
- kinase still bound, per cent of control [12]: 91%
- kinase still bound, per cent of control [13]: 100%
- kinase still bound, per cent of control [14]: 86%
- kinase still bound, per cent of control [15]: 100%
- kinase still bound, per cent of control [16]: 100%
- kinase still bound, per cent of control [17]: 100%
- kinase still bound, per cent of control [18]: 100%
- kinase still bound, per cent of control [19]: 98%
- kinase still bound, per cent of control [20]: 100%
- kinase still bound, per cent of control [21]: 72%
- kinase still bound, per cent of control [22]: 100%
- kinase still bound, per cent of control [23]: 95%
- kinase still bound, per cent of control [24]: 97%
- kinase still bound, per cent of control [25]: 100%
- kinase still bound, per cent of control [26]: 100%
- kinase still bound, per cent of control [27]: 100%
- kinase still bound, per cent of control [28]: 83%
- kinase still bound, per cent of control [29]: 78%
- kinase still bound, per cent of control [30]: 94%
- kinase still bound, per cent of control [31]: 100%
- kinase still bound, per cent of control [32]: 99%
- kinase still bound, per cent of control [33]: 70%
- kinase still bound, per cent of control [34]: 87%
- kinase still bound, per cent of control [35]: 100%
- kinase still bound, per cent of control [36]: 96%
- kinase still bound, per cent of control [37]: 11%
- kinase still bound, per cent of control [38]: 100%
- kinase still bound, per cent of control [40]: 100%
- kinase still bound, per cent of control [41]: 85%
- kinase still bound, per cent of control [42]: 89%
SMILES: COc1ccc(CNC(=O)Nc2ncc([N+](=O)[O-])s2)cc1
